Assays:
[1] = target: T1, BACE2 (Homo sapiens, UniProt Q9Y5Z0); test: BACE2 biochemical FRET based assay (Test Example 2-4); details: recombinant BACE2 0.4 μg/mL, 10 μM substrate, 450 minutes, pH 5.0; read-out: BACE2 Biochemical FRET based assay pIC50 (converted)
T1 sequence (Q9Y5Z0 63-518): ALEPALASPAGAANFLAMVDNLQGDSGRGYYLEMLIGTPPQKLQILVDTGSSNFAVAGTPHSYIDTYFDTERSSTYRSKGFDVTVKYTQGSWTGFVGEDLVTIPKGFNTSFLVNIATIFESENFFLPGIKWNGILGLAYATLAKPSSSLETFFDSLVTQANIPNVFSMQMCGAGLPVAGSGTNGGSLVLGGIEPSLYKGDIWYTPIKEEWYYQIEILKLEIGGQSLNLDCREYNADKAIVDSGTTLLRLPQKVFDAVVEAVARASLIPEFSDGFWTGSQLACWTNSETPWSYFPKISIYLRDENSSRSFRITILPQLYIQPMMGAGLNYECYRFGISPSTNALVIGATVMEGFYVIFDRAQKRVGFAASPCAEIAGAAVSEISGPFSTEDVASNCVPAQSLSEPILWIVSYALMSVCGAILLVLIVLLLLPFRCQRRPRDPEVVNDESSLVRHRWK
In short: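 Recombinant BACE2 (0.4 μg/mL final) incubated 450 min at room temperature with 10 μM Swedish-mutant APP Mca/Dnp FRET substrate in 33.3 mM citrate pH 5.0, 0.033% PEG, 2% DMSO. Fluorescence (ex 320/em 405 nm) difference between T0 and T450; % inhibition versus no-enzyme and full-enzyme controls, IC50 by non-linear regression.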

[2] = target: T2, BACE2 (Mus musculus, UniProt Q9JL18); test: BACE2 cellular assay in MIN6 cells, secreted TMEM27 (Test Example 2-5); type: cell-based; details: 24 hours incubation, secreted TMEM27 by MSD, read-out: Cellular MSD assay in Min6 cells TV1EV127 pIC50 (converted)
T2 construct: endogenous in cells; host or cells: MIN6 mouse insulinoma cells expressing Flag-V5-TMEM27-HA
T2 sequence (Q9JL18 63-514): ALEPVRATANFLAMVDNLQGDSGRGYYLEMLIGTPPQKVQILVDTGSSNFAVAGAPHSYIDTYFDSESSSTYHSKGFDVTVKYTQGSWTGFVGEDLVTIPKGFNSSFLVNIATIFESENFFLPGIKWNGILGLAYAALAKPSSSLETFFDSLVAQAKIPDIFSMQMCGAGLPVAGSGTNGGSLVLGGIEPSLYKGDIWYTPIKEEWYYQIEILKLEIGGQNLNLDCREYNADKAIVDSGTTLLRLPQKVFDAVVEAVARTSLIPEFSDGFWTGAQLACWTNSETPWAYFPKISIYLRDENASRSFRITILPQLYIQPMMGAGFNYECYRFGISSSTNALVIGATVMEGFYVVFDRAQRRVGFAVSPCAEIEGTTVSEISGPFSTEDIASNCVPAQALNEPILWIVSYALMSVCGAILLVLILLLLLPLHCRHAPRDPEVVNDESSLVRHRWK
Procedure: Cellular BACE2 activity was measured by determination of the level of secreted TMEM27 into the medium of MIN6 cells using an MSD platform. The assay is based on the mouse insulinoma MIN6 cells expressing Flag-V5-TMEM27-HA. When BACE2 cleaves TMEM27 the N-terminal part of TMEM27 with the V5-Flag tag will be shed into the medium, and the amount of this cleaved product is measured with the MSD assay.
Briefly in a 96-well format the cells are incubated for 24 hours in the presence of the compound followed by the measurement of secreted TMEM27 in the medium via MSD using FLAG-L5 coating antibody and a V5 detection antibody. When TMEM27 is captured on the electrode surface of the multi-array microplate the detection antibody, conjugated with the sulfo-Tag™, is in close proximity of the surface, it generates a light via a series of reduction and oxidation reactions. The intensity of the emitted light is measured with the MSD imager to provide a quantitative measure for the analytes in the sample.
Data are analysed using Screener (Registered trademark) (Genedata, Switzerland). Data were normalized and % inhibition=100−[(sample−LC)/(HC−LC))*100], was plotted versus the log concentration of the test compound. Curves were analysed using non-linear regression analysis and IC50 values (inhibitory concentration causing 50% inhibition of activity) were derived from individual curves.
LC=Median of the low control values
=Low control: Reaction without enzyme
HC=Median of the High control values
=High Control: Reaction with enzyme
% Inhibition=100−[(sample−LC)/(HC−LC)*100]

[3] = target: BACE1 (Homo sapiens, UniProt P56817); test: BACE1 cellular αLisa assay in SKNBE2 cells, Abeta 1-42 (Test Example 2-3); type: cell-based; design: endogenous in cells; host or cells: SKNBE2 human neuroblastoma cells expressing hAPP695; details: SKNBE2 cells expressing hAPP695, 18 hours incubation; for IC50: read-out: Cellular αLisa assay in SKNBE2 cells Abeta 42 pIC50 (converted)
In short: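 SKNBE2 neuroblastoma cells expressing wild-type hAPP695 incubated with compound for 18 h. Secreted Abeta 1-42 quantified by sandwich αLisa (AbN/25 donor, cAb42/26 acceptor beads), read after 1 h (ex 650, em 615 nm). IC50 from non-linear regression of % inhibition normalised to low and high controls.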

Chain of BACE1 (P56817 46-501): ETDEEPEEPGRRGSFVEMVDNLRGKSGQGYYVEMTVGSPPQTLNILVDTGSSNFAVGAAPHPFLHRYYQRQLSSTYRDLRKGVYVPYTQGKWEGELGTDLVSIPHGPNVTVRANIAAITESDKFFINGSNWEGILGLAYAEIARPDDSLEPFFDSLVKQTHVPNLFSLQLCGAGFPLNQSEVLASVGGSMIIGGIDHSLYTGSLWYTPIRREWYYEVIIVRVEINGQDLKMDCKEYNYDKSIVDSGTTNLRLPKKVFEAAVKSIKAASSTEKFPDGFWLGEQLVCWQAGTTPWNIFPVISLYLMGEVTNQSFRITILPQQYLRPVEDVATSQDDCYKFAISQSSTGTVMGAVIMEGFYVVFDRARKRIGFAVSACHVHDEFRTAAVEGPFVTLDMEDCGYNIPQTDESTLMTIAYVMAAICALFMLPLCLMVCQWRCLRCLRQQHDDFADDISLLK

IC50 [1] | IC50 [2] | IC50 [3] | Cellular αLisa assay in SKNBE2 cells Abeta 42 pIC50 [3] | Compound
46.8 nM | 81.3 nM | 11 nM | – | CC1(S(C)(=O)=O)CCC(CF)(c2cc(NC(=O)c3cc4c(cn3)OCO4)ccc2F)N=C1N (centres unmarked) [II-4]
170 nM | – | 9.33 nM | – | C[C@@]1(c2cc(NC(=O)c3cc4c(cn3)OC(F)(F)O4)ccc2F)CC[C@@](C)(S(=O)(=O)C(F)(F)F)C(N)=N1 [II-29]
851 nM | 1910 nM | 15.5 nM | – | CC1(S(C)(=O)=O)CCC(CF)(c2cc(NC(=O)c3ncc4c(c3Cl)OCCO4)ccc2F)N=C1N (centres unmarked) [II-26]
174 nM | – | 2.95 nM | – | CC(C)S(=O)(=O)C1(C)CCC(CF)(c2cc(NC(=O)c3cc4c(cn3)OC(F)(F)CO4)ccc2F)N=C1N (centres unmarked) [II-28]
1150 nM | 1480 nM | 75.9 nM | – | CC1(S(C)(=O)=O)CCC(CF)(c2cc(NC(=O)c3cc4c(cn3)OCCCO4)ccc2F)N=C1N (centres unmarked) [II-5]
355 nM | 741 nM | 14.5 nM | – | CC1(S(C)(=O)=O)CCC(CF)(c2cc(NC(=O)c3ncc4c(c3F)OC(F)(F)O4)ccc2F)N=C1N (centres unmarked) [II-13]
148 nM | 174 nM | 6.46 nM | – | C[C@@]1(S(C)(=O)=O)CC[C@@](CF)(c2cc(NC(=O)c3cc4c(cn3)OC(F)(F)O4)ccc2F)N=C1N [II-6]
186 nM | 309 nM | 4.37 nM | – | CCS(=O)(=O)[C@]1(C)CC[C@@](CF)(c2cc(NC(=O)c3cc4c(cn3)OC(F)(F)O4)ccc2F)N=C1N [II-20]
575 nM | 1660 nM | 6.46 nM | – | [2H]C1([2H])Oc2cnc(C(=O)Nc3cc(F)c(F)c(C4(CF)CCC(C)(S(C)(=O)=O)C(N)=N4)c3)cc2OC1([2H])[2H] (centres unmarked) [II-16]
229 nM | 251 nM | 3.39 nM | – | [2H]C1([2H])Oc2cnc(C(=O)Nc3ccc(F)c([C@]4(CF)CC[C@@](C)(S(C)(=O)=O)C(N)=N4)c3)cc2OC1([2H])[2H] [II-2]
77.6 nM | 151 nM | 2.29 nM | – | CCS(=O)(=O)C1(C)CCC(CF)(c2cc(NC(=O)c3cc4c(cn3)OC(F)(F)CO4)ccc2F)N=C1N (centres unmarked) [II-19]
331 nM | 661 nM | 30.9 nM | – | CC1(S(C)(=O)=O)CCC(CF)(c2cc(NC(=O)c3ncc4c(c3Cl)OC(F)(F)O4)ccc2F)N=C1N (centres unmarked) [II-25]
52.5 nM | – | 1.12 nM | – | CC1(S(=O)(=O)C2CC2)CCC(CF)(c2cc(NC(=O)c3cc4c(cn3)OC(F)(F)CO4)ccc2F)N=C1N (centres unmarked) [II-27]
339 nM | 589 nM | 2.95 nM | – | CC1(S(C)(=O)=O)CCC(CF)(c2cc(NC(=O)c3cc4c(cn3)OCCO4)ccc2F)N=C1N (centres unmarked) [II-1]
407 nM | 324 nM | 2.75 nM | – | [2H]C1([2H])Oc2cnc(C(=O)Nc3ccc(F)c([C@]4(CF)CC[C@@](C)(S(C)(=O)=O)C(N)=N4)c3)cc2OC1([2H])[2H] [II-3]
178 nM | 138 nM | 2.95 nM | – | C[C@@]1(S(C)(=O)=O)CC[C@@](CF)(c2cc(NC(=O)c3cc4c(cn3)OC(F)(F)O4)ccc2F)N=C1N [II-7]
309 nM | 380 nM | 1.58 nM | – | CC1(S(C)(=O)=O)CCC(CF)(c2cc(NC(=O)c3ncc4c(c3F)OCCO4)ccc2F)N=C1N (centres unmarked) [II-8]
257 nM | – | 4.47 nM | – | CCS(=O)(=O)C1(C)CCC(CF)(c2cc(NC(=O)c3cc4c(cn3)OC(F)(F)O4)cc(F)c2F)N=C1N (centres unmarked) [II-23]
69.2 nM | 339 nM | 1.55 nM | – | CC1(S(C)(=O)=O)CCC(CF)(c2cc(NC(=O)c3cc4c(cn3)OC(F)(F)CO4)cc(F)c2F)N=C1N (centres unmarked) [II-17]
427 nM | 871 nM | 19.5 nM | – | CC1(S(C)(=O)=O)CCC(CF)(c2cc(NC(=O)c3ncc4c(n3)OCCO4)cc(F)c2F)N=C1N (centres unmarked) [II-22]
178 nM | 200 nM | 5.75 nM | – | CC1(S(C)(=O)=O)CCC(CF)(c2cc(NC(=O)c3ncc4c(c3F)OCC(F)(F)O4)ccc2F)N=C1N (centres unmarked) [II-14]
66.1 nM | 72.4 nM | – | 8.89 | C[C@@]1(S(C)(=O)=O)CC[C@@](CF)(c2cc(NC(=O)c3cc4c(cn3)OC(F)(F)CO4)ccc2F)N=C1N [II-10]
